Measured values published in patent publication US9763445B2, “Safened herbicidal compositions comprising a pyridine carboxylic acid herbicide” (Dow AgroSciences, LLC, priority 2014, dated 2017).

Tests used:
wild mustard (SINAR) = experiment: Postemergence greenhouse trial, % visual injury on wild mustard; format: in vivo, Sinapis arvensis; details: SINAR
In short: (§1)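 Herbicide rates g ae/ha, safener (cloquintocet-mexyl) rates g ai/ha; spray carrier 1.5% v/v crop oil concentrate, 187 L/ha, 2nd–3rd leaf stage. Rating: visual % injury at 20-22 d.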

winter rape (BRSNW) = experiment: Postemergence greenhouse trial, % visual injury on winter rape; format: in vivo, Brassica napus; details: for % visual injury, Ob: BRSNW
In short: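 Plants at second or third true leaf stage, greenhouse-grown (14 h photoperiod, ~23/22° C.), sprayed postemergence with compounds alone or with safener cloquintocet-mexyl in 1.5% v/v Agri-dex crop oil at 187 L/ha. Visual injury scored 0–100% versus solvent-blank controls after 20-22 d; expected mixture effects by Colby's equation.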

kochia (KCHSC) = experiment: Postemergence greenhouse trial, % visual injury on kochia; format: in vivo, Kochia scoparia; details: for % visual injury, Ob / % visual injury, observed (Ob): KCHSC
In short: as §1

[1] = compound 0 g/ha, CQC-m 4.375 g/ha
[2] = compound 0 g/ha, CQC-m 8.75 g/ha
[3] = compound 0 g/ha, CQC-m 17.5 g/ha
[4] = compound 8 0 + CQC-m 4.375 g/ha

CCCCCC(C)OC(=O)COc1ccc(Cl)c2cccnc12 (centres unmarked) [CQC-m, cloquintocet-mexyl, reference compound]
0%: % visual injury, Ob (wild mustard (SINAR); compound 0, CQC-m 8.75 g/ha) | % visual injury, Ob (wild mustard (SINAR); compound 0, CQC-m 17.5 g/ha) | % visual injury, Ob (wild mustard (SINAR); compound 0, CQC-m 35 g/ha) | % visual injury, Ob (wild mustard (SINAR); compound 0, CQC-m 70 g/ha) | % visual injury, Ob (wild mustard (SINAR); [1]) | % visual injury, Ob (wild mustard (SINAR); [2]) | % visual injury, Ob (wild mustard (SINAR); [3]) | % visual injury, Ob (wild mustard (SINAR); compound 0 g/ha, CQC-m 35 g/ha) | % visual injury, Ob (wild mustard (SINAR); compound 0 g/ha, CQC-m 70 g/ha) | % visual injury, observed (Ob) (wild mustard (SINAR); [4]) | % visual injury, observed (Ob) (wild mustard (SINAR); compound 8 0 + CQC-m 8.75 g/ha) | % visual injury, observed (Ob) (wild mustard (SINAR); compound 8 0 + CQC-m 17.5 g/ha) | % visual injury, observed (Ob) (wild mustard (SINAR); compound 8 0 + CQC-m 35 g/ha) | % visual injury, observed (Ob) (wild mustard (SINAR); compound 8 0 + CQC-m 70 g/ha) | % visual injury, Ob (winter rape (BRSNW); 4.375 g/ha, applied alone) | % visual injury, Ob (winter rape (BRSNW); 8.75 g/ha, applied alone) | % visual injury, Ob (winter rape (BRSNW); 17.5 g/ha, applied alone) | % visual injury, Ob (winter rape (BRSNW); 35 g/ha, applied alone) | % visual injury, Ob (winter rape (BRSNW); 70 g/ha, applied alone) | % visual injury, Ob (winter rape (BRSNW); compound 0, CQC-m 4.375 g/ha) | % visual injury, Ob (winter rape (BRSNW); compound 0, CQC-m 8.75 g/ha) | % visual injury, Ob (winter rape (BRSNW); compound 0, CQC-m 17.5 g/ha) | % visual injury, Ob (winter rape (BRSNW); compound 0, CQC-m 35 g/ha) | % visual injury, Ob (winter rape (BRSNW); compound 0, CQC-m 70 g/ha) | % visual injury, Ob (winter rape (BRSNW); [1]) | % visual injury, Ob (winter rape (BRSNW); [2]) | % visual injury, Ob (winter rape (BRSNW); [3]) | % visual injury, Ob (winter rape (BRSNW); compound 0 g/ha, CQC-m 35 g/ha) | % visual injury, Ob (winter rape (BRSNW); compound 0 g/ha, CQC-m 70 g/ha) | plant injury at 4.375 g/ha (winter rape (BRSNW); Brassica napus, post-emergence, alone, 4.375 g/ha, read-out: % visual injury, Ob) | plant injury at 8.75 g/ha (winter rape (BRSNW); Brassica napus, post-emergence, alone, 8.75 g/ha, read-out: % visual injury, Ob) | plant injury at 17.5 g/ha (winter rape (BRSNW); Brassica napus, post-emergence, alone, 17.5 g/ha, read-out: % visual injury, Ob) | plant injury at 35 g/ha (winter rape (BRSNW); Brassica napus, post-emergence, alone, 35 g/ha, read-out: % visual injury, Ob) | plant injury at 70 g/ha (winter rape (BRSNW); Brassica napus, post-emergence, alone, 70 g/ha, read-out: % visual injury, Ob) | pest or weed control at 4.375 g/ha (kochia (KCHSC); Bassia scoparia, post-emergence, alone, 4.375 g/ha, read-out: % visual injury, Ob) | pest or weed control at 8.75 g/ha (kochia (KCHSC); Bassia scoparia, post-emergence, alone, 8.75 g/ha, read-out: % visual injury, Ob) | pest or weed control at 17.5 g/ha (kochia (KCHSC); Bassia scoparia, post-emergence, alone, 17.5 g/ha, read-out: % visual injury, Ob) | pest or weed control at 20 g/ha (kochia (KCHSC); Bassia scoparia, post-emergence, alone, 20 g/ha, read-out: % visual injury, Ob) | pest or weed control at 35 g/ha (kochia (KCHSC); Bassia scoparia, post-emergence, alone, 35 g/ha, read-out: % visual injury, Ob) | pest or weed control at 40 g/ha (kochia (KCHSC); Bassia scoparia, post-emergence, alone, 40 g/ha, read-out: % visual injury, Ob) | pest or weed control at 70 g/ha (kochia (KCHSC); Bassia scoparia, post-emergence, alone, 70 g/ha, read-out: % visual injury, Ob) | pest or weed control at 80 g/ha (kochia (KCHSC); Bassia scoparia, post-emergence, alone, 80 g/ha, read-out: % visual injury, Ob) | % visual injury, Ob (kochia (KCHSC); 4.375 g/ha, applied alone) | % visual injury, Ob (kochia (KCHSC); 8.75 g/ha, applied alone) | % visual injury, Ob (kochia (KCHSC); 17.5 g/ha, applied alone) | % visual injury, Ob (kochia (KCHSC); 35 g/ha, applied alone) | % visual injury, Ob (kochia (KCHSC); 70 g/ha, applied alone) | % visual injury, Ob (kochia (KCHSC); compound 0, CQC-m 4.375 g/ha) | % visual injury, Ob (kochia (KCHSC); compound 0, CQC-m 8.75 g/ha) | % visual injury, Ob (kochia (KCHSC); compound 0, CQC-m 17.5 g/ha) | % visual injury, Ob (kochia (KCHSC); compound 0, CQC-m 35 g/ha) | % visual injury, Ob (kochia (KCHSC); compound 0, CQC-m 70 g/ha) | % visual injury, Ob (kochia (KCHSC); [1]) | % visual injury, Ob (kochia (KCHSC); [2]) | % visual injury, Ob (kochia (KCHSC); [3]) | % visual injury, Ob (kochia (KCHSC); compound 0 g/ha, CQC-m 35 g/ha) | % visual injury, Ob (kochia (KCHSC); compound 0 g/ha, CQC-m 70 g/ha) | % visual injury, observed (Ob) (kochia (KCHSC); [4]) | % visual injury, observed (Ob) (kochia (KCHSC); compound 8 0 + CQC-m 8.75 g/ha) | % visual injury, observed (Ob) (kochia (KCHSC); compound 8 0 + CQC-m 17.5 g/ha) | % visual injury, observed (Ob) (kochia (KCHSC); compound 8 0 + CQC-m 35 g/ha) | % visual injury, observed (Ob) (kochia (KCHSC); compound 8 0 + CQC-m 70 g/ha)
